Measured values published in patent publication US20140179786A1, “Treatment of Alzheimer's Disease Using Tolfenamic Acid” (Board of Governors for Higher Education, State of Rhode …, priority 2012, published 2014).

Tests used:
[1] = system: CDK5; assay: CDK5 gene expression in the cerebral cortex; format: in vivo, mice; conditions: daily administration for a month; 5 and 50 mg/kg groups vs control, p<0.05
Procedure: (§1) Since Sp1 also regulates CDK5 activators, the effects of tolfenamic acid on CDK5 were also tested. […] 3A (using one-way ANOVA F(2,13)=59.647, p=2.8×10^−7 Tukey-Kramer post-test p<0.05 for the C vs the 5 mg/kg group and for the C vs the 50 mg/kg group). […] When comparing the 50 mg/kg dose group to the control however, by Tukey-Kramer test, the 40% lowering in CDK5 from control was statistically significant (p<0.05).

[2] = system: tau protein; assay: total tau protein levels in mouse cortex by Western blot; format: in vivo, mice; conditions: 0, 5 and 50 mg/kg/day for 34 days; vs control; p<0.05; dose of the value not stated
Procedure: (§2) It has been discovered that tolfenamic acid lowers the levels of the transcription factor Sp1, and consequently reduce the levels of an Sp1 target gene, APP, along with its pathogenic cleavage product Aβ. […] Therefore, in the study design 0, 5 and 50 mg/kg/day tolfenamic acid was administered for 34 days. […] Total mRNA levels were analyzed by real time PCR with β-actin as endogenous control. Protein expression was measured by Western blot analysis and quantified as a ratio to the house keeping protein β-actin (antibodies: T9450, Sigma-Aldrich, MO; 4970, Cell Signaling, MA). […] Values shown are the mean ±SEM.

[3] = system: CDK5; assay: CDK5 protein levels after tolfenamic acid treatment; format: in vivo, mice
Procedure: as §1

[4] = system: tau phosphorylated at Ser 235; assay: P-tau at Ser 235 by Western blotting; format: in vivo, mice; conditions: 5 and 50 mg/kg groups vs control, p<0.05
Procedure: (§3) As phosphorylation of tau affects its function and its ability to bind to microtubules, it was important to test how phosphorylated tau is affected by the treatment. P-tau levels were analyzed by Western blotting using specific antibodies. P-tau at Ser 235 (as shown in FIG. 4A) and P-tau at Thr 181 (as shown in FIG. 4B) were lowered by both doses of tolfenamic acid as shown in FIGS. 4A and 4B. Tau phosphorylated at Ser 235 was lowered by about 15% as indicated by one-way ANOVA (F(2,11)=6.105, p=0.0165), Tukey-Kramer post-test p<0.05 for the C vs the 5 mg/kg group and for the C vs the 50 mg/kg group. P-tau at Thr 181 was lowered by about 30%, one-way ANOVA F(2,10)=7.272, p=0.0112, Tukey-Kramer post-test p<0.05 for the C vs the 5 mg/kg group and for the C vs the 50 mg/kg group.

[5] = system: homozygous APP YAC transgenic mice, line R1.40; assay: Morris water maze, learning and long-term memory; format: in vivo
Procedure: In order to examine the ability of tolfenamic acid to improve the learning and memory deficits in AD transgenic mice model, male and female homozygous APP YAC transgenic, line R1.40, and wild type C57BL/6 mice aging between 20-24 months were used. Four groups of similar age and gender variation were administered vehicle or tolfenamic acid daily via oral gavages for 34 days; one transgenic group was administered 5 mg/kg/day tolfenamic acid in corn oil (n=7); the second transgenic group was administered 50 mg/kg/day tolfenamic acid in corn oil (n=7), the third transgenic group was administered corn oil, the vehicle, and the last group which consisted of wild type C57BL/6 mice was administered vehicle (n=8). After 14 days of daily dosing, mice were tested in Morris water maze. In this task, the mice had to locate the hidden platform by learning multiple spatial relationships between the platform and the distal extra-maze cues. On the first day, mice received a habituation trial in which they were allowed to swim freely for 60 seconds. On the following day and for a total of 8 days, mice received training sessions of 3 trials daily. The starting position for each trial was randomly assigned between the four possible positions while the platform position was fixed in each trial. Each animal was allowed to swim until they find the immersed hidden platform or for a maximum of 60 seconds. […]

[6] = system: tau phosphorylated at Thr 181; assay: P-tau at Thr 181 by Western blotting; format: in vivo, mice; conditions: 5 and 50 mg/kg groups vs control, p<0.05
Procedure: as §3

[7] = system: tau gene; assay: tau mRNA expression in mouse cortex by real time PCR; format: in vivo, mice; conditions: 0, 5 and 50 mg/kg/day for 34 days; vs control; dose of the value not stated
Procedure: as §2

[8] = system: homozygous APP YAC transgenic mice, line R1.40; assay: Y-maze spontaneous alternation, working memory; format: in vivo; conditions: day 33
Procedure: In order to examine the ability of tolfenamic acid to improve the learning and memory deficits in AD transgenic mice model, male and female homozygous APP YAC transgenic, line R1.40, and wild type C57BL/6 mice aging between 20-24 months were used. Four groups of similar age and gender variation were administered vehicle or tolfenamic acid daily via oral gavages for 34 days; one transgenic group was administered 5 mg/kg/day tolfenamic acid in corn oil (n=7); the second transgenic group was administered 50 mg/kg/day tolfenamic acid in corn oil (n=7), the third transgenic group was administered corn oil, the vehicle, and the last group which consisted of wild type C57BL/6 mice was administered vehicle (n=8). Upon conducting the 8 acquisition sessions, probe trials on Day 1 and Day 11 following the last day of training were performed to assess the long-term memory retention by studying the preference of the mice to the correct quadrant that contained the hidden platform. On day 33, mice were tested for spontaneous alternation in Y-maze, defined as the percentage of the number of arm entries different from the previous two entries divided by the total arm entries minus two. Finally, on Day 35, mice were euthanized and brain tissue was removed and stored at −80° C.

Compound: Cc1c(Cl)cccc1Nc1ccccc1C(=O)O [tolfenamic acid]
- lowering of CDK5 gene expression in the cerebral cortex [1]: about 50%
- reduction of total tau protein levels [2]: 46%
- lowering in CDK5 levels from control ([3]; 50 mg/kg dose group vs control, Tukey-Kramer p<0.05): 40%
- CDK5 levels, lowering trend by one-way ANOVA ([3]; all dose groups, one-way ANOVA F(2,8)=4.086, p=0.059): not significant
- lowering of tau phosphorylated at Ser 235 [4]: about 15%
- % time spent in the target quadrant, probe trials (long-term memory retention) ([5]; 5 and 50 mg/kg/day, Day 1 and 11 following the 8 daily training sessions): significant increase
- spatial learning profile (escape latency) in daily trials ([5]; both doses (5 and 50 mg/kg/day), oral gavage, transgenic mice 20-24 months): improved
- lowering of P-tau at Thr 181 [6]: about 30%
- lowering of tau mRNA expression [7]: 48%
- improvement in the behavioral profile (spontaneous alternation, Y-maze) ([8]; 5 mg/kg/day): did not reach significance
- increase in the spontaneous alternation ratio in Y-maze ([8]; 50 mg/kg/day): significant
